Test results from article PMC4165445 (Biochemistry, 2014).
Blank lines part the entries; values can stand above or below the substance they belong to.

Key:
[1] = target: JNK; details: read-out: KD (μM) JNK; docking motif peptide binding to JNK; cited from earlier work
[2] = target: p38; details: read-out: KD (μM) p38; docking motif peptide binding to p38; cited from earlier work
[3] = target: ERK; details: read-out: KD (μM) ERK; docking motif peptide binding to ERK; cited from earlier work
[4] = target: JNK1 (Homo sapiens, UniProt P45983); assay: Recombinant kinase assay, kinetic parameters of sensor phosphorylation; type: biochemical
Sequence of JNK1 (P45983 whole entry): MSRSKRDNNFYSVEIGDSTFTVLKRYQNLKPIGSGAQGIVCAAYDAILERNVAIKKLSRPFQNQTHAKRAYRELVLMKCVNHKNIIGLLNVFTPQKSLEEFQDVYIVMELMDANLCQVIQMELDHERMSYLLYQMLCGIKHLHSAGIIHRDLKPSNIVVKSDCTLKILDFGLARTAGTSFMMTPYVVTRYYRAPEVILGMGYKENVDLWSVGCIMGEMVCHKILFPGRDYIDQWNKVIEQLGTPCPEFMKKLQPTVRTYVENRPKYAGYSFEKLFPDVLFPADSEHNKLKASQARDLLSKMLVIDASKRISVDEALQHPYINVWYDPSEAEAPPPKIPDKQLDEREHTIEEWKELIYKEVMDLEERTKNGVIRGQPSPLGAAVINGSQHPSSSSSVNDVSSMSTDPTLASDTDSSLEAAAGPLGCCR

[5] = target: JNK2 (Homo sapiens, UniProt P45984); assay: as above; type: biochemical
[6] = target: JNK3 (Homo sapiens, UniProt P53779); assay: as above; type: biochemical
Sequence of JNK3 (P53779 whole entry): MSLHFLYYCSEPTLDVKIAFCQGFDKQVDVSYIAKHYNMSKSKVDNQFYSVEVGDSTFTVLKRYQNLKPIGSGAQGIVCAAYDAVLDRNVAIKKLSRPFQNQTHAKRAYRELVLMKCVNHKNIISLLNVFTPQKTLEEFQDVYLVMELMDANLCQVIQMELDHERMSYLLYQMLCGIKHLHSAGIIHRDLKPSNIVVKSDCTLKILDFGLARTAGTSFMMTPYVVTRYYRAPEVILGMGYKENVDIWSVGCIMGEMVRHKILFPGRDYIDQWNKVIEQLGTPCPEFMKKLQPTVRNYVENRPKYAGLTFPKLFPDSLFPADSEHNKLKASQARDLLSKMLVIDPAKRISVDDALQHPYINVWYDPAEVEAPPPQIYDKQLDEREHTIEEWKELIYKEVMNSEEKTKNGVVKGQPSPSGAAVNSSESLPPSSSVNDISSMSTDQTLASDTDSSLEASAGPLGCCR

[7] = test system: off target kinases; assay: Kinase panel selectivity screen, JNK sensor, off target kinases; type: biochemical; details: 15 nM kinase, sensor at 2 × KM (3 μM), other MAP and non-MAP kinases
[8] = target: T1, p38α (Homo sapiens, UniProt Q16539); assay: Recombinant kinase assay, kinetic parameters of sensor phosphorylation; type: biochemical
T1 sequence (Q16539 whole entry): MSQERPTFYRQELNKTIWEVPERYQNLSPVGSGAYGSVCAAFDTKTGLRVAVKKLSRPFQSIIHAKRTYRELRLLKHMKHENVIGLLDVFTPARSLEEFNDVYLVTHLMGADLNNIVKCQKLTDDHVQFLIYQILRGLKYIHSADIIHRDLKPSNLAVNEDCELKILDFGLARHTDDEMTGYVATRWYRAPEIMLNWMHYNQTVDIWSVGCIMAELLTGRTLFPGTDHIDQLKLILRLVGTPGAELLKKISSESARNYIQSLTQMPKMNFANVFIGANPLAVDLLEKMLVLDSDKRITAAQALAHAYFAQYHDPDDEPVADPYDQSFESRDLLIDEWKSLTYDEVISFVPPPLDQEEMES

[9] = target: T2, p38β (Homo sapiens, UniProt Q15759); assay: as above; type: biochemical
T2 sequence (Q15759 whole entry): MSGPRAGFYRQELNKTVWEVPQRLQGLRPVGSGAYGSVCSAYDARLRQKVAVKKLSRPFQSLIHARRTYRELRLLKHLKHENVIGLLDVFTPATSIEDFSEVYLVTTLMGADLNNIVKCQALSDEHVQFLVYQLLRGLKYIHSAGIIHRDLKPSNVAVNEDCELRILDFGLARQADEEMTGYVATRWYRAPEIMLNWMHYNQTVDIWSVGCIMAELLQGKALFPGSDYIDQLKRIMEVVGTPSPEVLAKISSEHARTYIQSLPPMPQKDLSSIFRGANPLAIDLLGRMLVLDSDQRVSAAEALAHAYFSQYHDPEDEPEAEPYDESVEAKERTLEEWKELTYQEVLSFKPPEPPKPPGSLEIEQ

[10] = target: ERK1 (Homo sapiens, UniProt P27361); assay: as above; type: biochemical
Sequence of ERK1 (P27361 whole entry): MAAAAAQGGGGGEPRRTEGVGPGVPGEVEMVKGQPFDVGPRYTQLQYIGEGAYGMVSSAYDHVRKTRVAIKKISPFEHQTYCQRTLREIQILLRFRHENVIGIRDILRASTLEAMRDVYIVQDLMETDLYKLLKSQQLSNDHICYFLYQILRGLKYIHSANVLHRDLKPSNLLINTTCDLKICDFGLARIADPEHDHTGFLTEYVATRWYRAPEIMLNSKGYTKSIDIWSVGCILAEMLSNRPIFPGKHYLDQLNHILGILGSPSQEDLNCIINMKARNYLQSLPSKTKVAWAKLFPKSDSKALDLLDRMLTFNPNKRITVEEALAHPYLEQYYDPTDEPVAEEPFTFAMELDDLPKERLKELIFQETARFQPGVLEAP

[11] = target: ERK2 (Homo sapiens, UniProt P28482); assay: as above; type: biochemical
Sequence of ERK2 (P28482 whole entry): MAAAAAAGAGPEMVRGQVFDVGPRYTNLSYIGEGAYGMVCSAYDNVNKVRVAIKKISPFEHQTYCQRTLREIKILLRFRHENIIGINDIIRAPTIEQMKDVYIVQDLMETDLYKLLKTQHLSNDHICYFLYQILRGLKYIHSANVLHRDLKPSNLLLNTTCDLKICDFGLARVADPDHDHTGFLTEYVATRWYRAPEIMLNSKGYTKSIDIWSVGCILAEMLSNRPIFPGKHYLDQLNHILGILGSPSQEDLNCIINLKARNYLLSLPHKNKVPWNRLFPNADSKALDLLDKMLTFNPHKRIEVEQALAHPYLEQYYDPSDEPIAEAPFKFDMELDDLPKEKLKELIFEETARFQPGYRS

[12] = target: T1, p38α; assay: Kinase panel selectivity screen, ERK sensor crosstalk with p38α; type: biochemical; details: 15 nM kinase, sensor at 2 × KM (2.5 μM)
[13] = target: T2, p38β; assay: Kinase panel selectivity screen, ERK sensor crosstalk with p38β; type: biochemical; details: 15 nM kinase, sensor at 2 × KM (2.5 μM)
[14] = recombinant JNK1, 1 mM ATP, pH 7.4, 30 °C, Sox fluorescence
[15] = recombinant JNK2, 1 mM ATP, pH 7.4, 30 °C, Sox fluorescence
[16] = recombinant JNK3, 1 mM ATP, pH 7.4, 30 °C, Sox fluorescence
[17] = 1 mM ATP, pH 7.4, 30 °C, Sox fluorescence
[18] = recombinant ERK1, 1 mM ATP, pH 7.4, 30 °C, Sox fluorescence
[19] = recombinant ERK2, 1 mM ATP, pH 7.4, 30 °C, Sox fluorescence

Substance: ERPSRDHLYLPLEP [NFAT4]
Kd [1]: 7.1 µM
Kd [2]: > 100 µM
Kd [3]: > 100 µM

Substance: IKIKKIEDASNPLLLKRRKK [MK2]
Kd [1]: > 100 µM
Kd [2]: 0.05 µM
Kd [3]: 19.5 µM

Substance: PQLKPIESSILAQRRVRKL [RSK1]
Kd [1]: > 100 µM

Now from value to substance:

catalytic efficiency (min^–1 μM^–1) ([4]; recombinant JNK1): 5.4 min^–1 μM^–1
Vmax (μmol min^–1 mg^–1) [4, 14]: 0.38 ± 0.05 μmol min^–1 mg^–1
kcat (min^–1) [4, 14]: 17.9 ± 2.2 min^–1
catalytic efficiency (min^–1 μM^–1) ([5]; recombinant JNK2): 19.2 min^–1 μM^–1
Vmax (μmol min^–1 mg^–1) [5, 15]: 0.37 ± 0.02 μmol min^–1 mg^–1
kcat (min^–1) [5, 15]: 18.2 ± 1.3 min^–1
catalytic efficiency (min^–1 μM^–1) ([6]; recombinant JNK3): 9.4 min^–1 μM^–1
Vmax (μmol min^–1 mg^–1) [6, 16]: 0.35 ± 0.07 μmol min^–1 mg^–1
kcat (min^–1) [6, 16]: 26.6 ± 5.6 min^–1
activity observed for any of the off target kinases (percentage of the target kinase) [7]: ≤ 12.5%
Substance: ERPSRDHLYLPLEP-PEG2-SANLLSP-Csox-PA [JNK1/2/3]

catalytic efficiency (min^–1 μM^–1) [8]: 298.7 min^–1 μM^–1
Vmax (μmol min^–1 mg^–1) [8, 17]: 1.37 ± 0.08 μmol min^–1 mg^–1
kcat (min^–1) [8, 17]: 92.6 ± 5.4 min^–1
catalytic efficiency (min^–1 μM^–1) [9]: 282.9 min^–1 μM^–1
Vmax (μmol min^–1 mg^–1) [9, 17]: 0.84 ± 0.13 μmol min^–1 mg^–1
kcat (min^–1) [9, 17]: 39.6 ± 6.3 min^–1
Substance: GKKRRKLLLPNSADEIKKIKI-PEG2-Triazole-PEG2-QP-Csox-ASPVV [p38α/β]

catalytic efficiency (min^–1 μM^–1) ([10]; recombinant ERK1): 26.2 min^–1 μM^–1
Vmax (μmol min^–1 mg^–1) [10, 18]: 0.42 ± 0.03 μmol min^–1 mg^–1
kcat (min^–1) [10, 18]: 29.9 ± 2.0 min^–1
catalytic efficiency (min^–1 μM^–1) ([11]; recombinant ERK2): 54.6 min^–1 μM^–1
Vmax (μmol min^–1 mg^–1) [11, 19]: 0.90 ± 0.01 μmol min^–1 mg^–1
kcat (min^–1) [11, 19]: 62.8 ± 0.7 min^–1
crosstalk with p38α (percentage of the target kinase) [12]: 10%
crosstalk with p38β (percentage of the target kinase) [13]: 17%
Substance: GLKRVRRQALISSEIPKLQP-PEG2-Triazole-PEG2-VP-Csox-LTPGGRR [ERK1/2]
